Values joined by “and” are separate entries in the source; they are usually repeats but may differ in a detail not shown here. Identical values can stand only once. Counter-ions that a name gives are not always drawn.
Legend:
Hep G2 = Hep G2 in-vitro cytotoxicity assay; type: cell-based; conditions: Homo sapiens, HepG2, read-out: Hs HEPG2 pEC50 (converted)
From the text: In-vitro cytotoxicity studies can be carried out using Hep G2 (Human hepatocyte carcinoma, HPACC cat. no. 85011430) used as indicators for general mammalian cell toxicity. Hep G2 in-vitro cytotoxicity can be assessed using the assay procedure as described in “Use of a human-derived liver cell line for the detection of cytoprotective, antigenotoxic and cogenotoxic agents”, Volker Mersch-Sundermann, Siegfried Knasmüller, Xin-jiang Wu, Firouz Darroudi, Fekadu Kassie. J. Tox 198 (2004) 329-340) the contents of which are incorporated herein by reference.

[1] = molecular target: T1, Plasmodium falciparum lysyl t-RNA synthetase (Pf-KRS1) (Plasmodium falciparum, UniProt Q8IDJ8); assay: Pf-KRS1 inhibition biochemical assay (Kinase-Glo, ATP depletion); conditions: read-out: Pf-KRS pIC50 (converted)
T1 construct: Pf KRS1-; made in house; host or cells: E. coli BL21 (DE3)
From the text: Plasmodium falciparum Lysine tRNA Synthetase (KRS1) Biochemical Assay Methodology.
Lysine tRNA Synthetase (KRS1) is an enzyme which catalyses the esterification of L-Lysine to the appropriate transfer ribonucleic acid (tRNA), to form an aminoacyl-tRNA. Once the tRNA is charged, a ribosome transfers the amino acid from the tRNA onto a growing peptide, according to the genetic code.
The substrates of this reaction are L-lysine, and adenosine triphosphate (ATP), the overall reaction is: amino acid+tRNA+ATP→aminoacyl-tRNA+AMP+PPi
In this overall reaction AMP is adenosine monophosphate and PP; is inorganic pyrophosphate. The reaction progression in a biochemical assay can be tracked by the depletion of one of the substrates, in the case of this invention, ATP. This was done using the proprietary assay kit, Kinase Glo® Assay which is a luminescent kinase assay platform suitable for monitoring kinase activities using up to 10 μm ATP which is commercially available from the Promega Corporation of Madison, Wis., USA. The Kinase-Glo® Assay was performed in a single well of a multiwell plate by adding a volume of Kinase-Glo® Reagent equal to the volume of a completed kinase reaction and measuring luminescence. The resulting luminescent signal is correlated with the amount of ATP present and is inversely correlated with the amount of kinase activity. As such by use of this assay methodology a reduction of the luminescent signal is relative to the reduction in ATP as the reaction progresses. A compound which inhibits the action of KRS will show no drop in the luminescent signal from assay controls.
Assays were performed using both Plasmodium falciparum and human KRS to assess any selectivity of various test compounds.
Test compounds were solubilized in DMSO at a top concentration of 10 mM and serially diluted 1 in 3 to achieve a range of final assay concentrations of 50 μM to 2.5 nM in 10 μl reaction volume.
KRS was diluted to a working concentration of 75 nM in assay buffer (25 mM HEPES, 25 mM KOH, 10 mM MgCl2.6H2O, 50 mM KCl), and the following ‘Master Mix’ prepared in assay buffer: 0.1 mg/ml BSA, 250 μM DTT, 200 μM Spermine, 0.05% NP-40, ATP 3 μM for Pf KRS1 (4 μM for Hs KRS1), 0.4 mg/ml tRNA from Yeast, 60 μM L-Lysine, 0.5 U/ml Pyrophosphatase.
Plates were incubated at room temperature for 5 h for Pf KRS (2.5 hrs for HsKRS), then the assay stopped by the addition of 10 μl of The Kinase-Glo® Reagent Assay was performed in a single well of a multiwell plate by adding a volume of Kinase-Glo® Reagent which is commercially available from the Promega Corporation of Madison, Wis., USA. The plates were incubated in the dark for a further 15 mins before being read for luminescence on a BMG PHERAstar® FSX plate reader which is a multi-mode reader for use in high-throughput screening available from BMG Labtech if Cary, N.C., USA. Data were analysed by calculating the percentage inhibition compared to the maximum and minimum assay controls. Concentration effect curves were fitted using nonlinear regression within ActivityBase and IC50 values were determined using standard protocols.

[2] = tested on: Plasmodium falciparum strain 3D7; assay: Plasmodium falciparum 3D7 in vitro growth inhibition (SYBRgreen I); type: cell-based; conditions: Plasmodium falciparum, 3D7; read-out: pEC50 for Pf 3D7 (converted)
Procedure: Parasite Cultures and Cytotoxicity Assay Methodology for Plasmodium falciparum. […] Growth inhibition of the Plasmodium falciparum cultures was quantified in a 10-point dose response curve with a 1 in 3 dilution series from a top assay concentration of 50 μM. This 384 well plate based fluorescence assay utilises the binding of SYBRgreen I (Thermo Fisher Scientific/Invitrogen cat. no. S7585) to double stranded DNA, which greatly increases the fluorescent signal at 528 nm after excitation at 485 nm. Mefloquine was used as a drug control to monitor the quality of the assay (Z′=0.6 to 0.8, where Z′ is a measure of the discrimination between the positive and negative controls on a screen plate). Dose-response curves were determined from a minimum of 3 independent experiments. Compound bioactivity was expressed as EC50, the effective concentration of compound causing 50% parasite death.

T1 sequence (Q8IDJ8 entry or part of it, looked up, natural form): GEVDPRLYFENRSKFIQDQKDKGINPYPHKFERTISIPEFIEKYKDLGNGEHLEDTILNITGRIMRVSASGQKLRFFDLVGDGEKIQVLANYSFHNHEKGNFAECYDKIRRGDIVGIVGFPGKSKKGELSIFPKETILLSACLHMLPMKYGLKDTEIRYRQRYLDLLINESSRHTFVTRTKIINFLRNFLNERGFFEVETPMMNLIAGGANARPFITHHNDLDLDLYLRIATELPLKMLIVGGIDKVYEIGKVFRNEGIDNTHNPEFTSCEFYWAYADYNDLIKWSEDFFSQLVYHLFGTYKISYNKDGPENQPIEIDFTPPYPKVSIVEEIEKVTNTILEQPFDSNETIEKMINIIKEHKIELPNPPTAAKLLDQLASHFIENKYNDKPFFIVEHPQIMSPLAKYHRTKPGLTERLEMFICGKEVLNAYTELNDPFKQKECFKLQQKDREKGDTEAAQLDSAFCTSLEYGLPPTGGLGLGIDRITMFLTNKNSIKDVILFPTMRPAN

EC50 [2] [nM]	Structure (SMILES)	EC50 (Hep G2) [nM]	IC50 [1]
–	O=C(NCC1CCCCC1)c1cc(=O)c2cccc(F)c2o1 [Example 8, N-(cyclohexylmethyl)-8-fluoro-4-oxo-chromene-2-carboxamide]	50100	–
–	CCc1ccc2oc(C(=O)NCC3(O)CCCCC3)cc(=O)c2c1 [Example 45, 6-ethyl-N-[(1-hydroxycyclohexyl)methyl]-4-oxo-chromene-2-carboxamide]	50100	–
–	O=C(NC[C@@H]1CCCC[C@H]1O)c1cc(=O)c2cc(F)ccc2o1 [Example 57E, 6-Fluoro-N-(((1S,2R)-2-hydroxycyclohexyl)methyl)-4-oxo-4H-chromene-2-carboxamide]	50100	–
–	CCOC(=O)CC1(CNC(=O)c2cc(=O)c3cc(F)ccc3o2)CCCCC1 [Example 57K, Ethyl 2-(1-((6-fluoro-4-oxo-4H-chromene-2-carboxamido)methyl)cyclohexyl)acetate]	–	316 nM
–	O=C(NCC1CCCCC1)c1cc(=O)c2cccc(OCCN3CCNCC3)c2o1 [Example 62, N-(cyclohexylmethyl)-4-oxo-8-(2-piperazin-1-ylethoxy)chromene-2-carboxamide dihydrochloride]	50100	–
–	O=C(NCC1(O)CCC(F)(F)CC1)c1cc(=O)c2ccc(F)c(O)c2o1 [Example 80, N-((4,4-difluoro-1-hydroxycyclohexyl)methyl)-7-fluoro-8-hydroxy-4-oxo-4H-chromene-2-carboxamide]	50100	316 nM
–	CS(=O)(=O)Nc1cccc2c(=O)cc(C(=O)NCC3(O)CCCCC3)oc12 [Example 84A, N-[(1-hydroxycyclohexyl)methyl]-8-(methylsulfonamido)-4-oxo-4H-chromene-2-carboxamide]	50100	–
126	COC(=O)c1cccc2c(=O)cc(C(=O)NCC3CCCCC3)oc12 [Example 87, Methyl 2-((cyclohexylmethyl)carbamoyl)-4-oxo-4H-chromene-8-carboxylate]	25100	–
–	NC(=O)c1cccc2c(=O)cc(C(=O)NCC3CCCCC3)oc12 [Example 89, N2-(cyclohexylmethyl)-4-oxo-4H-chromene-2,8-dicarboxamide]	50100	501 nM
79.4	Nc1c(F)ccc2c(=O)cc(C(=O)NCC3(O)CCC(F)(F)CC3)oc12 [Example 92, 8-Amino-N-[(4,4-difluoro-1-hydroxy-cyclohexyl)methyl]-7-fluoro-4-oxo-chromene-2-carboxamide]	–	–
12.6	Nc1cc(F)cc2c(=O)cc(C(=O)NCC3(O)CCCCC3)oc12 [Example 96, 8-amino-6-fluoro-N-[(1-hydroxycyclohexyl)methyl]-4-oxo-4H-chromene-2-carboxamide]	–	–
39.8	Nc1cc(F)cc2c(=O)cc(C(=O)NCC3(F)CCCCC3)oc12 [Example 97, 8-amino-6-fluoro-N-[(1-fluorocyclohexyl)methyl]-4-oxo-4H-chromene-2-carboxamide]	20000	–
631	Nc1cc(F)cc2c(=O)cc(C(=O)NC[C@H]3CC[C@H](O)CC3)oc12 [Example 98, 8-amino-6-fluoro-N-[(4-hydroxycyclohexyl)methyl]-4-oxo-chromene-2-carboxamide]	50100	–

Structure (SMILES)	EC50 [2] [nM]	EC50 (Hep G2) [nM]	IC50 [1]
O=C(NCC1CCCCO1)c1cc(=O)c2cc(F)ccc2o1 (centres unmarked) [Example 32, 6-fluoro-4-oxo-N-(tetrahydropyran-2-ylmethyl)chromene-2-carboxamide]	1580	–	398 nM and 794 nM
COc1cccc2c(=O)cc(C(=O)NCC3CCCCC3)oc12 [Example 66, N-(cyclohexylmethyl)-8-methoxy-4-oxo-4H-chromene-2-carboxamide]	2510	–	501 nM
O=C(NCC1(O)CCCC1)c1cc(=O)c2cc(F)cc(O)c2o1 [Example 76F, 6-fluoro-8-hydroxy-N-((1-hydroxycyclopentyl)methyl)-4-oxo-4H-chromene-2-carboxamide]	501	–	79.4 nM
Cc1c(C(=O)NCC2CCCCC2)oc2ccccc2c1=O [Example 90, N-(cyclohexylmethyl)-3-methyl-4-oxo-4H-chromene-2-carboxamide]	5010	–	1260 nM

From patent US11485720B2, “Anti-infective agents” (University of Dundee, priority 2016, dated 2022)
